From US9491962B2, “Use of chicoric acid and derivatives for regulating skin pigmentation” (Nestec S.A., priority 2010, dated 2016)

What was measured:
[1] = tested on: B16 murine melanocytes; experiment: Production of melanin by B16 murine melanocyte cell line; type: cell-based; conditions: for melanin production (result in words): B16 melanocytes, 72 hours, Kojic acid at 400 μg/mL
Description: In order to evaluate the potential beneficial effect of ingredients towards skin de- or pro-pigmentation we used 2D culture of murine melanocytes (B16) and we performed 2 tests: 1-assessment of melanin production and 2-assessment of tyrosinase production. B16 cells were cultured in DMEM 1 g/L glucose without phenol red supplemented with 10% foetal calf serum, in a humidified chamber at 37° C. and containing 5% CO2. Cells were incubated with the selected ingredients or the test references (Kojic acid at 400 μg/mL) for 72 hours, in the presence or absence of NDP-MSH an analog of MSH. The total quantity of melanin (extracellular and intracellular) was evaluated by measurement of the optical density at 405 nm of each sample against melanin standards in presence or in absence of NDP-MSH.

[2] = tested on: HDF; experiment: Highest non cytotoxic concentration on HDF; type: cell-based; conditions: mM
From the text: (§1) We have tested two chicory extracts MS-55 (concentré MS-55 LEROUX) and MS-70 (pâte MS-70 LEROUX) and Chicoric acid.

[3] = tested on: HPEK; experiment: Highest non cytotoxic concentration on HPEK; type: cell-based, human; conditions: mM
Description: as §1
The potential beneficial effect of the Extracts of Example 1 towards skin barrier function and skin hydration was evaluated by using 2D culture of human primary epidermal keratinocytes and we assessed the synthesis of filaggrin

[4] = tested on: filaggrin; experiment: Synthesis of filaggrin by human epidermal keratinocytes (immunolabeling); type: cell-based; conditions: human primary epidermal keratinocytes, 144 hours
Description: The potential beneficial effect of the Extracts of Example 1 towards skin barrier function and skin hydration was evaluated by using 2D culture of human primary epidermal keratinocytes and we assessed the synthesis of filaggrin Human epidermal keratinocytes were cultured in control keratinocytes-SFM medium, in a humidified chamber at 37° C. and containing 5% CO2. Cells were incubated with the selected ingredients or the test references (CaCl2 at 1.5 mM) for 144 hours. The production of filaggrin by was evaluated by immunolabeling.

Compound | decrease of melanin production ([1]; B16 melanocytes treated for 72 hours, percentage relative to the control) [%] | melanin production (result in words) [1] | Highest non cytotoxic conc. on HDF [2] [mM] | Highest non cytotoxic conc. on HPEK [3] [mM] | filaggrin synthesis (result in words) [4]
O=C(/C=C/c1ccc(O)c(O)c1)O[C@@H](C(=O)O)[C@@H](OC(=O)/C=C/c1ccc(O)c(O)c1)C(=O)O [Chicoric acid] | 90 | decrease in vitro the synthesis of melanin | 0.2 | 0.2 | increase of filaggrin
O=c1cc(CO)occ1O [Kojic acid, reference compound] | – | decrease in melanin production | – | – | –
